The source of these data is patent publication US20220315908A1, “NOVEL GARDNERELLA ENDOLYSINS AND USES THEREOF” (priority 2019, published 2022).

Converted amounts (≈) assume the structure as drawn. Like-named read-outs stand apart in the source and are kept apart here.

In one experiment the test system is G. swidsinskii (Gv_23). Briefly: MIC and MBC microbroth dilution. In kind it is cell-based, Gardnerella swidsinskii. As to conditions: for MIC / MBC: Gardnerella swidsinskii; for MIC: 48 h. The protocol:
(§1) One of the main deficiencies in the treatment of BV is the high rate of recurrence in many women, which leads to repeated administration of antibiotics and concomitant destabilization of the microbiome and other side effects. The minimal inhibitory concentration (MIC) and minimal bactericidal concentration (MBC) on Gardnerella cells of the strains also used for the endolysin activity assays were then measured using the method described in Reference Example 6 and 7. […] Essentially, Gardnerella suspensions at 2.5×10^7 CFU/ml were incubated with the concentration of antibiotics as indicated and incubated for 48 h at 37° C. under anaerobic conditions. […] OD(610) was measured at the beginning and the end of the experiment. At the end of the experiment, 2 ul of each reaction mix was spotted on agar to determine the MBC.
(§2) The conditions under which MIC and MBC were measured are more rigorous than the standard.
(§3) Example 7—Activity assays of a representative (H2B10) of domain swapped endolysins on the growth in suspension of different Gardnerella strains. […] The conditions under which MBC was measured are more rigorous than the standard. […] In general, it is known, that antibiotics only insufficiently eradicate the Gardnerella biofilm, a hallmark of BV, which is one suspected reason for the reported very high recurrence rate of BV. Despite leaving residual viable biofilm, antibiotics wipe parts of the beneficial organisms of the vaginal microbiome which then opens an ecological niche for other pathogens, e.g. fungi.
Bacteria were plated from cryo stock on BD Choc Agar plates (Gardnerella) and incubated at 37° C. for 48 h under anaerobic conditions. Colonies were scraped from the plate, resuspended in Hardy Broth or NYC-III-HS-pH 5.0, and the suspension adjusted to OD (610 or 620 nm as indicated) 0.05. It has to be noted that two Tecan Microplate readers, having respectively a 610 nm or 620 nm filter, have been used interchangeably in the experiments. Although it doesn't make any difference for the experiments, the exact wavelength used is specified in each example. Antibiotics were prepared as 20× stocks for each of the required final concentrations. 95 μl of cell suspension was mixed with 5 μl antibiotics dilution in a 384-well plate. OD (610-620 as indicated) at the start of the reaction was measured, then the plate was incubated at 37° C. for 48 h under anaerobic conditions. After that, the OD (610-620 as indicated) was measured again for MIC determination, where MIC was defined as the lowest concentration of antibiotic where the OD (610-620 as indicated) was not above the level measured at the beginning of the experiment. After measuring OD, 2 μl of each well were spotted on a NYC-III+HS Agar plate. The plates were then incubated for further 48 h at 37° C. under anaerobic conditions. After incubation, cell growth on each spot was evaluated, and the MBC defined as the lowest concentration of antibiotics where no bacteria grew on the plate. The experiments were conducted in triplicate for each condition. In the second round of MIC and MBC experiments with antibiotics the Gardnerella cell suspension was adjusted to the McFarland standard 0.5 (approximately OD (610) 0.07) and then diluted 1:75 according to the CLSI (Clinical and Laboratory Standards Institute) standards. Antibiotics were prepared according to the CLSI standards and 50 μl of cell suspension was mixed in a 96-well plate with 50 μl antibiotics. Otherwise the MIC and MBC was determined as described above.
(Dilution methods test growth across graded concentrations, often in twofold steps.)

Experiment [1] relates to all tested Gardnerella strains. Briefly: MIC and MBC microbroth dilution, stated over all tested strains. In kind it is cell-based. As to conditions: for MIC: Gardnerella. The protocol:
as §1, §2, §3
Bacteria were plated from cryo stock on BD Choc Agar plates (Gardnerella) and incubated at 37° C. for 48 h under anaerobic conditions. Colonies were scraped from the plate, resuspended in Hardy Broth or NYC-III-HS-pH 5.0, and the suspension adjusted to OD (610 or 620 nm as indicated) 0.05. It has to be noted that two Tecan Microplate readers, having respectively a 610 nm or 620 nm filter, have been used interchangeably in the experiments. Although it doesn't make any difference for the experiments, the exact wavelength used is specified in each example. Antibiotics were prepared as 20× stocks for each of the required final concentrations. […] OD (610-620 as indicated) at the start of the reaction was measured, then the plate was incubated at 37° C. for 48 h under anaerobic conditions. After that, the OD (610-620 as indicated) was measured again for MIC determination, where MIC was defined as the lowest concentration of antibiotic where the OD (610-620 as indicated) was not above the level measured at the beginning of the experiment. […] After incubation, cell growth on each spot was evaluated, and the MBC defined as the lowest concentration of antibiotics where no bacteria grew on the plate.

For orientation: MIC means the lowest concentration that inhibits growth of the organism. Usually MBC stands for the lowest tested concentration that kills the bacteria rather than only halting them. Take `Cc1ncc([N+](=O)[O-])n1CCO` [Metronidazole]: the MIC against G. swidsinskii (Gv_23) (first round: […]10^7 CFU/ml, Hardy broth, 384-well, 48 h 37° C. anaerobic) was above 128 µg/mL; against G. swidsinskii (Gv_23) (second round: 1×10^5-1×10^6 CFU/ml (CLSI), NYC-III broth, 96-well, 48 h anaerobic) it was 32 µg/mL (≈ 187 µM); in experiment [1] (48 h, first round: […]10^7 CFU/ml, 48 h anaerobic (FIG. 14), read-out: MIC over all Gardnerella strains) it was 64 to 128 µg/mL (≈ 374 to 748 µM); in experiment [1] (second round: 1×10^5-1×10^6 CFU/ml (FIG. 15), read-out: MIC over all tested Gardnerella strains) it was 8 to 128 µg/mL (≈ 46.7 to 748 µM). Further, the MBC in the experiment with G. swidsinskii (Gv_23) (second round: 1×10^5-1×10^6 CFU/ml (CLSI), NYC-III broth, 96-well) is above 128 µg/mL; in the experiment with G. swidsinskii (Gv_23) (first round: 2.5×10^7 CFU/ml, minimal concentration fully eradicating the suspension) it was above 128 µg/mL. The “resistance class of MIC, Metronidazole” value in the experiment on G. swidsinskii (Gv_23) (first round) is given as “R (>=32 μg/mi for Metronidazole)”. Moreover, the “resistance class given with MBC, Metronidazole” value in the experiment on G. swidsinskii (Gv_23) (second round) was “R (>=32 μg/mi for Metronidazole)”. Besides, the “resistance class printed with MIC, Metronidazole” value in the experiment on G. swidsinskii (Gv_23) (second round) is “R (>=32 μg/mi for Metronidazole)”. The “susceptibility of the Gardnerella strains, in words” value in experiment [1] (MIC microbroth dilution) is “resistant”.
